The results in this text go back to patent publication US8227406B2, “Antimicrobial peptides” (Dermagen AB, priority 2006, dated 2012).

Data set [1] relates to Staphylococcus aureus ATCC29213. In words: Radial diffusion assay (RDA), S. aureus. In kind it is cell-based. An outline of the steps:
(§1)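 Peptides (20-mers, crude, 5 mM water stock) applied at 6 μl per well to agarose underlay (0.03% TSB, 0.02% Tween 20) holding 4×10^6 bacterial or 1×10^5 fungal cfu from mid-log cultures washed in 10 mM Tris pH 7.4. After 3 h diffusion at 37 °C and nutrient overlay, clear zones read after 18–24 h (37 °C bacteria, 28 °C C. albicans).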

The test system of another data set is erythrocytes. In words: Hemolysis assay. It counts as cell-based. The note with it: % of TritonX-100 induced hemolysis; erythrocytes 1 h at 37° C.; peptides (3-60 μM). As to the method: EDTA-blood was centrifuged at 800 g for 10 min, whereafter plasma and buffy coat were removed. The erythrocytes were washed three times and resuspended in 5% PBS, pH 7.4. The cells were then incubated with end-over-end rotation for 1 h at 37° C. in the presence of peptides (3-60 μM). 2% Triton X-100 (Sigma-Aldrich) served as positive control. The samples were then centrifuged at 800 g for 10 min. The absorbance of hemoglobin release was measured at λ 540 nm and is in the plot expressed as % of TritonX-100 induced hemolysis (Table 1a).

In data set [2] the test system is Eschericia coli ATCC25922. The data set is described as follows: Radial diffusion assay (RDA), E. coli. It counts as cell-based, Escherichia coli. An outline of the steps:
as §1

Data set [3] concerns Candida albicans ATCC90028. In words: Radial diffusion assay (RDA), C. albicans. In kind it is cell-based. On the set-up: unit not given here. The note with it: Table 1a; RDA clear zone. As for the experimental part: Peptides. Peptides were from Sigma-Genosys, generated by a peptide synthesis platform (PEPscreen®, Custom Peptide Libraries, SigmaGenosys). Yield was ˜1-6 mg, and peptide length 20 amino acids. MALDI-ToF Mass Spectrometry was perfomed on these peptides. Average Crude Purity of 20mers was ˜60%. Peptides were supplied lyophilized and in a 96-well tube rack. Prior to biological testing the PEPscreen peptides were diluted in dH2O (5 mM stock), and stored at −20 C. This stock solution was used for the subsequent experiments.
Eschericia coli ATCC25922, Staphylococcus aureus ATCC29213, and the fungal isolate Candida albicans ATCC90028 were obtained from the Department of Bacteriology, Lund University Hospital.
Radial diffusion assays (RDA) were performed essentially as described earlier (Lehrer, R. I., Rosenman, M., Harwig, S. S., Jackson, R. & Eisenhauer, P. (1991) Ultrasensitive assays for endogenous antimicrobial polypeptides, J Immunol Methods. 137, 167-73). Briefly, bacteria (E. coli, S. aureus) or fungi (C. albicans) were grown to midlogarithmic phase in 10 ml of full-strength (3% w/v) trypticase soy broth (TSB) (Becton-Dickinson, Cockeysville, Md.). The microorganisms were washed once with 10 mM Tris, pH 7.4. 4×10^6 bacterial cfu or 1×10^5 fungal cfu was added to 5 ml of the underlay agarose gel, consisting of 0.03% (w/v) TSB, 1% (w/v) low-electroendoosmosistype (Low-EEO) agarose (Sigma, St Louise Mo.) and a final concentration of 0.02% (v/v) Tween 20 (Sigma). The underlay was poured into a Ø 85 mm petri dish. After agarose solidified, 4 mm-diameter wells were punched and 6 μl of test sample was added to each well. Plates were incubated at 37° C. for 3 hours to allow diffusion of the peptides. The underlay gel was then covered with 5 ml of molten overlay (6% TSB and 1% Low-EEO agarose in dH2O). Antimicrobial activity of a peptide is visualized as a clear zone around each well after 18-24 hours of incubation at 37° C. for bacteria and 28° C. for Candida albicans. Other examples of peptides that were screened and found to show an increased effect against the above mentioned microorgansism are listed below. Some of the results are found in table 1c showing the effects against C. albicans, table 1d E. coli and table 1e S. aureus.

[4] abbreviates: Table 1b, 10 mM Tris Hcl (pH 7.4).

As to `CC[C@H](C)[C@H](NC(=O)[C@H](CCCCN)NC(=O)[C@H](CCC(=O)O)NC(=O)[C@H](CCCCN)NC(=O)[C@H](CO)NC(=O)[C@H](CCCCN)NC(=O)[C@H](CCCNC(=N)N)NC(=O)[C@H](Cc1ccccc1)NC(=O)[C@H](Cc1ccccc1)NC(=O)[C@H](CC(=O)O)NC(=O)CNC(=O)[C@H](CC(C)C)NC(=O)[C@@H](N)CC(C)C)C(=O)NCC(=O)N[C@@H](CCCCN)C(=O)N[C@@H](CCC(=O)O)C(=O)N[C@@H](Cc1ccccc1)C(=O)N[C@@H](CCCCN)C(=O)N[C@@H](CCCNC(=N)N)C(=O)N[C@H](C(=O)N[C@H](C(=O)N[C@@H](CCC(N)=O)C(=O)N[C@@H](CCCNC(=N)N)C(=O)N[C@H](C(=O)N[C@@H](CCCCN)C(=O)N[C@@H](CC(=O)O)C(=O)N[C@@H](Cc1ccccc1)C(=O)N[C@@H](CC(C)C)C(=O)N[C@@H](CCCNC(=N)N)C(=O)N[C@@H](CC(N)=O)C(=O)N[C@@H](CC(C)C)C(=O)N[C@H](C(=O)N1CCC[C@H]1C(=O)N[C@@H](CCCNC(=N)N)C(=O)N[C@H](C(=O)N[C@@H](CCC(=O)O)C(=O)N[C@@H](CO)C(=O)O)[C@@H](C)O)C(C)C)[C@@H](C)CC)C(C)C)[C@@H](C)CC` [LL-37, reference compound], the “S. aureus ATCC 29213 Mean” value in data set [1] (Table 1a, RDA clear zone) is 4.660. In addition, the “RDA values (mm) S. aureus ATCC 29213” value in data set [1] (setting [4]) came to 3.23 mm. The “Hemolysis (%) Mean” value in the data set on erythrocytes stood at 21.464%. The “E.coli ATCC 25922 Mean, Ingrowth* counted” value in data set [2] (Table 1a, RDA clear zone, ingrowth counted) is given as 6.53. Moreover, the “E.coli ATCC 25922 Mean, Ingrowth not counted” value in data set [2] (Table 1a, RDA clear zone, ingrowth not counted) stood at 0.653. Besides, the “RDA values (mm) E. coli ATCC 25922” value in data set [2] (setting [4]) stood at 7.55 mm. Besides, the “Candida albicans ATCC 90028 Mean” value in data set [3] turned out to be 4.890.
